Reference: the NIST ThermoML archive (doi:10.1021/je201289w)

Key:
[1] = refractive index (Na D-line) (dimensionless); settings: 101.33 kPa, Liquid, Standard Abbe refractometry
[2] = 101.33 kPa, Liquid, Vibrating tube method

CCn1cc[n+](C)c1.O=S(=O)([N-]S(=O)(=O)C(F)(F)F)C(F)(F)F
Settings	mass density, [2] [kg/m3]	refractive index, [1]
283.15 K	1533.8	1.42738
288.15 K	1528.7	1.42594
293.15 K	1523.6	1.42451
298.15 K	1518.5	1.42309
303.15 K	1513.4	1.42166
308.15 K	1508.4	1.42022
313.15 K	1503.3	1.41881
318.15 K	1498.3	1.4174
323.15 K	1493.3	1.41597
328.15 K	1488.4	1.41458
333.15 K	1483.4	1.41319
338.15 K	1478.5	1.41177
343.15 K	1473.6	1.41037
348.15 K	1468.7	1.40902
353.15 K	1463.9	1.4076

CCn1cc[n+](C)c1.N#CN=C=[N-] [1-ethyl-3-methylimidazolium dicyanamide]
Settings	mass density, [2] [kg/m3]	refractive index, [1]
283.15 K	1111.4	1.51774
288.15 K	1107.9	1.51605
293.15 K	1104.6	1.51441
298.15 K	1101.2	1.51278
303.15 K	1097.9	1.51121
308.15 K	1094.6	1.50963
313.15 K	1091.3	1.50808
318.15 K	1088	1.50655
323.15 K	1084.8	1.50502
328.15 K	1081.5	1.50351
333.15 K	1078.3	1.50191
338.15 K	1075.2	1.5003
343.15 K	1072	1.49865
348.15 K	1068.9	1.49708
353.15 K	1065.8	1.49557

CCn1cc[n+](C)c1.F[B-](F)(F)F [1-ethyl-3-methylimidazolium tetrafluoroborate]
Settings	mass density, [2] [kg/m3]	refractive index, [1]
283.15 K	1292	1.41546
288.15 K	1288.2	1.41423
293.15 K	1284.3	1.413
298.15 K	1280.5	1.41177
303.15 K	1276.7	1.41055
308.15 K	1272.9	1.40934
313.15 K	1269.1	1.4081
318.15 K	1265.3	1.4069
323.15 K	1261.6	1.4057
328.15 K	1257.8	1.40452
333.15 K	1254	1.40327
338.15 K	1250.2	1.40211
343.15 K	1246.5	1.40093
348.15 K	1242.8	1.39975
353.15 K	1239.2	1.39858

CCCCn1cc[n+](C)c1.O=S(=O)([N-]S(=O)(=O)C(F)(F)C(F)(F)C(F)(F)C(F)(F)F)C(F)(F)C(F)(F)C(F)(F)C(F)(F)F
Settings	mass density, [2] [kg/m3]	refractive index, [1]
283.15 K	1629.5	1.39249
288.15 K	1623.4	1.39104
293.15 K	1617.3	1.38955
298.15 K	1611.1	1.38807
303.15 K	1605	1.38662
308.15 K	1599.1	1.38516
313.15 K	1593.2	1.38367
318.15 K	1587.4	1.38222
323.15 K	1581.6	1.38078
328.15 K	1575.8	1.3793
333.15 K	1570	1.37783
338.15 K	1564.2	1.37638
343.15 K	1558.4	1.37496
348.15 K	1552.6	1.3735
353.15 K	1546.8	1.37206

CCn1cc[n+](C)c1.CS(=O)(=O)[O-] [1-ethyl-3-methylimidazolium methanesulfonate]
Settings	mass density, [2] [kg/m3]	refractive index, [1]
283.15 K	1252	1.49994
288.15 K	1248.4	1.49855
293.15 K	1245	1.49718
298.15 K	1241.6	1.49582
303.15 K	1238.2	1.49444
308.15 K	1234.9	1.49308
313.15 K	1231.5	1.49172
318.15 K	1228.2	1.49039
323.15 K	1224.8	1.48905
328.15 K	1221.5	1.48768
333.15 K	1218.1	1.48638
338.15 K	1214.8	1.48498
343.15 K	1211.5	1.48367
348.15 K	1208.1	1.4823
353.15 K	1204.8	1.48095
